Assay [1] concerns U937 promonocytic leukemia cells. Briefly: Monocytic differentiation (NBT), U937. The note with it: U937, 0.1 μM. Format: cell-based, human. Here is the method:
HL-60 human promyelocytic and U937 promonocytic leukemia cells were treated with the drugs at 0.1 μM or vehicle (negative control or 12-O-tetradecanoylphorbol-13-acetate (TPA) (positive control). Media were changed every 72 h and test substances added fresh every day. Differentiation toward monocytes-like morphology and NBT-reduction has been assessed after 5 and 7 days. Cells (2×106) were washed with PBS four times and resuspended in 200 μL of NBT solution (4 mg/mL) in water. After the addition of 200 ul of TPA solution (2 ug/ml) in PBS cells were incubated at 37° C. for 60 min in 24-well plates. Cell differentiation was assessed by intracellular blue formazan deposits. The NBT positive and negative cells were scored under light microscopy examination (40×) with a minimum of 200 cells scored.
For spectrophotometric analysis the cells were washed twice with buffer containing cold bovine serum albumin solution (17 mg/mL BSA, 137 mmol/L, NaCl, 5 mmol/L, KCl, 0.8 mmol/L, MgSO4, […], HEPES, pH7.4) to remove unreacted NBT, and the insoluble formazan deposits in the resulting pellet were solubilized in 1 mL of a mixture containing 90% DMSO, 0.1% SDS and 0.01 mmol/L NaOH by vigorous vortexing. The samples were centrifuged 5 min at 1500 g to remove the cellular debris, and then the absorbance of supernatants was measured at 715 nm. Data are expressed as change in A715/106 cells.

For assay [2], the system named is human radial growth phase amelanotic melanoma WM35 cells. Briefly: Viability of WM35 melanoma cells. Format: cell-based. Particulars: WM35, 24 h. On the procedure:
Cells were seeded in 96-well plate and incubated with 20-hydroxycholecalciferol in DMEM medium containing 5% FBS for 48 h (FIG. 25A) or 72 h (FIG. 25C) or for 24 h after a 12 h synchronization in serum free medium (FIG. 25D). […] was added for a final 18 h (FIGS. 25A, 25D) or 12 h (FIG. 25C) of incubation or cells were assessed with sulforhodamine assay (FIG. 25C). Data is shown as mean±SEM (n=5; FIG. 24C) or mean±SEM (n=6; FIGS. 24A, 24C, 24D) and was analyzed using GraphPrism 4.0.

For a further assay, the system named is Col1A1 mRNA. Briefly: Real time RT PCR Col1A1 mRNA, TGF-b1 stimulated skin fibroblasts. The format is cell-based. The note with it: human skin fibroblasts. On the procedure: Additional studies using human skin fibroblasts were performed employing a type I collagen specific ELISA Chondrex, and real time RT PCR to quantitate type I collagen protein and Col1A1 mRNA expression in culture of human fibroblast stimulated by TGF-b1 in the presence and absence of 17,20S(OH)2pD3 and/or 20(OH)D3. These studies confirmed that Type I collagen protein production that was induced by TGF-b1 and that Col1A1 mRNA that was induced by TGF-b1 were suppressed by these analogues (FIGS. 44A-44B).

Assay [3] has as its system bleomycin-induced scleroderma in C57BL/6 mice. The experiment in a line: Bleomycin-induced scleroderma in mice. Format: in vivo, mouse. Here is the method: […] The skin was injected S.C. with 20(OH)D3 or vehicle daily within the same 1.5 cm^2 area. On day 22, all mice were euthanized and skin in the shaved area of the back was treated with a depilatory agent after which a biopsy of 1 cm circumference encompassing the S.C. injection site was taken to a depth to include the full thickness of the dermis. The skin samples from 5 randomly selected mice from each group were weighed and snap frozen in liquid nitrogen. Later, the skin samples were thawed and treated overnight with pepsin (0.1 mg/ml) of 0.5 M acetic acid at 4° C. with constant rocking to remove terminal non-helical telopeptides to release the collagen into solution. Total solubilized collagen was quantitative using a Sircol Collagen Assay kit using type I bovine collagen to obtain a standard curve. The collagen content of the skin samples was expressed as μg of collagen per mg tissue weight. Results for the groups were expressed as mean±SEM and analyzed by one way ANOVA with p values<0.05 considered to be statistically significant.

For the next assay, the target named is T1, CYP27A1 (Homo sapiens, UniProt Q02318).
T1 sequence (Q02318 34-531): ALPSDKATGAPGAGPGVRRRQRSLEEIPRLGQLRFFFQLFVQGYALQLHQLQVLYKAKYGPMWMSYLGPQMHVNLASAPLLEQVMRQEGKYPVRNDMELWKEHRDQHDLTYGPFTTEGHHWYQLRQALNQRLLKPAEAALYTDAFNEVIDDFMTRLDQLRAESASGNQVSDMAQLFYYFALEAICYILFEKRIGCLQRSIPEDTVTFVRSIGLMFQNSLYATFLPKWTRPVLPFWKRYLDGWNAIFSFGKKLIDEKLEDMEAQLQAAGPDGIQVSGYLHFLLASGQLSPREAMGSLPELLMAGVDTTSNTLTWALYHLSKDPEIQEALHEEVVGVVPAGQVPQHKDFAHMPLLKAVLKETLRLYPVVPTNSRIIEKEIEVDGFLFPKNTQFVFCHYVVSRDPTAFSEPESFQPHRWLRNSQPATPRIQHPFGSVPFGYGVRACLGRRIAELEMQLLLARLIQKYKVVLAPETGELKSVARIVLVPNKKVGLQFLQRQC
Briefly: Metabolism by CYP27A1 (cyclodextrin or phospholipid vesicles). Here is the method:
To test enzymatic metabolism of 20S(OH)D3 and 20R(OH)D3, the substrates were incorporated into phospholipid vesicles with the ratio of substrate to phospholipid being 0.025 mol/mol phospholipid. Vesicles were incubated with 2 μM bovine CYP11A1 or 0.06 μM human CYP27B1 for up to 10 min. To test enzymatic metabolism of 20(OH)D3 in CYP24, the substrate was incorporated into phospholipids vesicles with 0.15-0.5 μM CYP24. To test enzymatic metabolism of 20(OH)D3 in CYP27A1, purified CYP27A1 was preincubated with the vesicles for 6 min at 37° C. Adrenodoxin was added last to initiate the reaction. For kinetic experiments, the incubations were typically 0.5 mL and were carried out over the initial linear period of the reaction (10 min for vitamin D3 and cholesterol and 30 min for 20(OH)D3).
Kinetic characterization of the metabolism of 20(OH)D3 by CYP27A1 was carried out with substrate dissolved in either cyclodextrin or phospholipid vesicle. Vitamin D3 and 20(OH)D3 were incubated with 0.4 μM CYP27A1 and 1 μM CYP27A1, respectively, for 10 and 30 min. The products were analyzed by reverse phase HPLC. The hyperbolic curves were fitted using the equation v/[E]=(kcat—[S])/(Km+[S]) where v is reaction velocity, [E] is the CYP27A1 concentration, and [S] the substrate concentration.

Experimental findings from patent publication US20120258938A1, “Enzymatic Production or Chemical Synthesis and Uses for 5,7-Dienes and UVB Conversion Products Thereof” (priority 2008, published 2012) are described below.

SMILES strings stand for the structures.

For the compound `C=C1CC[C@H](O)C/C1=C/C=C1\CCC[C@]2(C)[C@@H](C(C)=O)CC[C@@H]12` [pD3, (5Z,7E)-3β-hydroxy-9,10-secopregna-5,7,10(19)-trien-20-one], the “monocytic differentiation (NBT staining)” value in assay [1] is given as “induce monocytic differention”.
Broadly, the kcat is the maximal rate divided by the concentration of active sites. In the case of `C=C1CC[C@H](O)C/C1=C/C=C1\CCC[C@@]2(C)[C@H]1CC[C@@H]2[C@@](C)(O)CCCC(C)C` [20(OH)D3, (5Z,7E)-9,10-secocholesta-5,7,10(19)-triene-3β,20-diol], in assay [2], the “concentration above which viability started declining” value was “greater than 1×10^−7 M”. For the same compound, the “TGF-b1 induced Col1A1 mRNA” value in the assay on Col1A1 mRNA is listed as “suppressed”. The “bleomycin-induced increase of total skin collagen” value in assay [3] (3 μg/kg daily dose, 21 days) is “prevented”. The “body weight less than the vehicle control group” value in assay [3] (bleomycin + 20(OH)D3, 21 days) worked out at 13.6%. Besides, the kcat at CYP27A1 (cyclodextrin) was determined as 0.013 ± 0.00033 s⁻¹; on CYP27A1 (phospholipid vesicles), 0.0126 ± 0.001 s⁻¹.
